Reference: patent publication US4871723A, “Method for treating psoriasis by externally administering to a patient a pharmaceutical composition containing active-type vitamin D” (priority 1984, dated 1989)
Like-named read-outs stand apart in the source and are kept apart here.

What was measured:
psoriasis = conditions: clinical data, cited from earlier work
[1] = amount of vitamin D3 in femoral muscles of rats 2 hours after ointment application or oral administration; format: in vivo, male Wistar-strain rats
Description: (ii) Hair was removed from the femoral parts of five male Wistar-strain rats (body weight 220 to 230 g), and 100 mg of the ointment prepared in (i) was well rubbed into the hair-removed part of each animal. Two hours later, the rats were sacrificed, and the skin at the ointment-administeredsite was carefully removed and the muscles inside were taken out.

psoriasis vulgaris = experiment: therapeutic effect of ointment on psoriasis vulgaris of a person; format: in vivo; set-up: key to degree of severity: 4: very serious; 3: serious; 2: medium; 1: light; 0: disappeared
Description: (i) A suitable amount of 1α,24(R)-dihydroxycholecalciferol was dissolved in diisopropyl adipate, and the solution was uniformly mixed with white vaseline to form an ointment. The mixing ratio of diisopropyl adipate to white vaseline was always maintained at 1:4 by weight, and the concentration of 1α,24(R)-dihydroxycholecalciferol in the ointment was adjusted to 400 micrograms/30 mg, 40 micrograms/30 mg, and 4 micrograms/30 mg.
(ii) Each of the three ointment thus prepared was applied to the site of psoriasis vulgaris of a person, and their therapeutic effects were evaluated. Specifically, ±he ointment having a 1α,24(R)-(OH)2 -D3 concentration of 400 micrograms/30 mg was applied twice daily each in an amount of 30 mg to psoriasis vulgaris at the lower part of the right femur (diseased part A). The ointment having a 1α,24(R)-(OH)2 -D3 concentration of 40 micrograms/[…] was applied twice a day each in an amount of 30 mg to psoriasis vulgaris at the lower part of the left femur (diseased part B). The ointment having a 1α,24(R)-(OH concentration of 4 micrograms/30 mg was applied twice a day each in an amount of 30 mg to psoriasis vulgaris at the middle part of the right femur (the diseased part C).
The therapeutic effects were evaluated on a scale of 5 grades as follows: […]

[2] = control group, oral 0.5 microgram
[3] = ointment-applied group, 100 mg ointment (5 micrograms/g)

| Amounts in the femoral muscles, 1st time (5 rats) [1, 2] | Amounts in the femoral muscles, 2nd time (5 rats) [1, 2] | Amounts in the femoral muscles, 3rd time (5 rats) [1, 2] | Amounts in the femoral muscles, 1st time (5 rats) [1, 3] | Amounts in the femoral muscles, 2nd time (5 rats) [1, 3] | Amounts in the femoral muscles, 3rd time (5 rats) [1, 3] | Compound | effectiveness for the treatment of psoriasis (psoriasis; external application) | effectiveness for the treatment of psoriasis (psoriasis; oral administration) | relapse of lesion (psoriasis vulgaris; after more than 30 days from stopping of drug application, diseased parts A to C) | therapeutic effect on psoriasis vulgaris (psoriasis vulgaris; external application, ointment) | improvement of diseased parts (psoriasis vulgaris; five days after beginning of treatment, diseased parts A to C (400, 40, 4 micrograms/30 mg, twice daily), original severity 4) | degree of severity (psoriasis vulgaris; ten days, all cases cured, diseased parts A to C (400, 40, 4 micrograms/30 mg, twice daily), original severity 4) |
| --- | --- | --- | --- | --- | --- | --- | --- | --- | --- | --- | --- | --- |
|  |  |  |  |  |  | C=C1/C(=C\C=C2/CCC[C@]3(C)[C@@H]([C@H](C)CCCC(C)(C)O)CC[C@@H]23)C[C@@H](O)C[C@@H]1O [1α,25-(OH)2 --D3, 1α,25-dihydroxycholecalciferol] | effective | effective |  |  |  |  |
| 103 | 98 | 126 | 441 | 607 | 588 | C=C1/C(=C\C=C2/CCC[C@]3(C)[C@@H]([C@H](C)CCCC(C)C)CC[C@@H]23)C[C@@H](O)C[C@@H]1O [Example 1α-OH--D3, 1α-hydroxycholecalciferol] |  | effective |  |  |  |  |
|  |  |  |  |  |  | C=C1/C(=C\C=C2/CCC[C@]3(C)[C@@H]([C@H](C)CC[C@@H](O)C(C)C)CC[C@@H]23)C[C@@H](O)C[C@@H]1O [1α,24(R)-(OH)2 -D3, 1α,24(R)-dihydroxycholecalciferol] |  |  | no relapse of lesion was noted | good therapeutic effect | an improvement was observed in all cases | 0 |
